# Test results taken from patent publication US9062015B2, “Inhibitors of sphingosine kinase” (Merck Patent GmbH, priority 2009, dated 2015).
# Target: SphK1 (Homo sapiens, UniProt Q9NYA1)
# Assay: SphK1 kinase assay, 384-well flashplate (biochemical assay)
# Conditions: IC50 ranges; 5 nM modified SphK1, 800 nM omega-biotinyl-D-erythro-sphingosine, 1 μM ATP, 30° C., 120 min; read-out: SphK1 Inhibition IC50
# Protocol: Tests for the Inhibition of the SphK1 Activity
# The kinase assay is carried out as a 384-well flashplate assay.
# 5 nM modified SphK1, 800 nM omega-biotinyl-D-erythro-sphingosine and 1 μM ATP (with 0.3 μCi of ^33P-ATP/well) are incubated in a total volume of 50 μl (25 mM HEPES, 5 mM MgCl2, 1 mM dithiothreitol, 0.01% of Brij35, 0.1% of BSA (fatty acid-free), pH 7.4) without or with test substance (5-10 concentrations) at 30° C. for 120 min. The reaction is terminated using 25 μl of 200 mM EDTA solution, filtered off with suction at room temperature after 30 min, and the cavities are washed 3 times with 100 μl of 0.9% NaCl solution. The non-specific proportion of the kinase reaction (blank) is determined using 0.5 mM NaCl. Radioactivity is measured in topcount. IC50 values are calculated using RS1.
# SphK1, sequence (Q9NYA1 9-364 limits assumed): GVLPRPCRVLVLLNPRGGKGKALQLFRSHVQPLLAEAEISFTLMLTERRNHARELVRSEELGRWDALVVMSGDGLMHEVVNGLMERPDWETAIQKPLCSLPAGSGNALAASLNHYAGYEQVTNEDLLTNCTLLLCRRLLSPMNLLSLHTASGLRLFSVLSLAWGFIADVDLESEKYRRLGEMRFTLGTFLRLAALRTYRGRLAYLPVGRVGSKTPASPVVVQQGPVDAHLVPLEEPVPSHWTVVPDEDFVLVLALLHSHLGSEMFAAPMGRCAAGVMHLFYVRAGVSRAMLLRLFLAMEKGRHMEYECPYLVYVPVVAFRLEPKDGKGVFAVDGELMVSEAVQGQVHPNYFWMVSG
row,SMILES,IC50 [µM]
1,CC1(C)CCC(C)(C)c2cc(-c3cccc(N4CCN(CCCCCO)CC4)n3)ccc21,< 0.1
2,"CC1(C)CC(C)(C)c2cc(-c3cccc(N4CCN(CCCCCO)CC4)n3)ccc21 [5-{4-[6-(1,1,3,3-Tetramethylindan-5-yl)pyridin-2-yl]piperazin-1-yl}-pentan-1-ol]",0.1 to 1
3,"CC1(C)CCCc2cc(-c3ncnc(N4CCNCC4)n3)ccc21 [2-(5,5-Dimethyl-5,6,7,8-tetrahydronaphthalen-2-yl)-4-piperazin-1-yl-1,3,5-triazine]",> 1
4,CC1(C)CCC(C)(C)c2cc(-c3cc(N4CCN(CCCCO)CC4)ccn3)ccc21,0.1 to 1
5,"CC1(C)CCC(C)(C)c2cc(-c3cccc(N4CCC(N)CC4)n3)ccc21 [6′-(5,5,8,8-Tetramethyl-5,6,7,8-tetrahydronaphthalen-2-yl)-3,4,5,6-tetrahydro-2H-1,2′-bipyridinyl-4-ylamine]",0.1 to 1
6,"CC1(C)CCC(C)(C)c2cc(-c3cccc(N4CCNCC4)n3)ccc21 [1-[6-(5,5,8,8-Tetramethyl-5,6,7,8-tetrahydronaphthalen-2-yl)pyridin-2-yl]piperazine]",0.1 to 1
7,Cc1ccc(-c2ccc3c(c2)C(C)(C)CCC3(C)C)cc1N1CCNCC1,> 1
8,"CC1(C)CCCc2cc(-c3cccc(N4CCN(CCCO)CC4)n3)ccc21 [3-{4-[6-(5,5-Dimethyl-5,6,7,8-tetrahydronaphthalen-2-yl)pyridin-2-yl]-piperazin-1-yl}propan-1-ol]",> 1
9,"CC1(C)CCC(C)(C)c2cc(-c3ccnc(N4CCNCC4)n3)ccc21 [2-Piperazin-1-yl-4-(5,5,8,8-tetramethyl-5,6,7,8-tetrahydronaphthalen-2-yl)pyrimidine]",0.1 to 1
10,"CC1(C)CCC(C)(C)c2cc(-c3ncnc(N4CCN(CCCCO)CC4)n3)ccc21 [4-{4-[4-(5,5,8,8-Tetramethyl-5,6,7,8-tetrahydronaphthalen-2-yl)-1,3,5-triazin-2-yl]piperazin-1-yl}butan-1-ol]",< 0.1
11,"CC1(C)CCCc2ccc(-c3cccc(N4CCN(CCCCCO)CC4)n3)cc21 [5-{4-[6-(8,8-Dimethyl-5,6,7,8-tetrahydronaphthalen-2-yl)pyridin-2-yl]-piperazin-1-yl}pentan-1-ol]",> 1
12,"CC1(C)CCC(C)(C)c2cc(-c3ncnc(N4CCC(N5CCCC(O)C5)CC4)n3)ccc21 (stereo not shown) [1′-[4-(5,5,8,8-Tetramethyl-5,6,7,8-tetrahydronaphthalen-2-yl)-1,3,5-triazin-2-yl]-1,4′-bipiperidinyl-3-ol]",0.1 to 1
13,"CC1(C)CCC(C)(C)c2cc(-c3cccc(N4CCC(N5CCC(N)C5)CC4)n3)ccc21 (stereo not shown) [1-[6′-(5,5,8,8-Tetramethyl-5,6,7,8-tetrahydronaphthalen-2-yl)-3,4,5,6-tetrahydro-2H-1,2′-bipyridinyl-4-yl]pyrrolidin-3-ylamine]",< 0.1
14,CC1(C)CCC(C)(C)c2cc(-c3nccc(N4CCN(CCCO)CC4)n3)ccc21,0.1 to 1
15,COCCOc1ccc(-c2ccc3c(c2)C(C)(C)CCC3(C)C)nc1N1CCNCC1,> 1
16,"CC1(C)CCc2cc(-c3cccc(N4CCN(CCCCO)CC4)n3)ccc21 [4-{4-[6-(1,1-Dimethylindan-5-yl)pyridin-2-yl]piperazin-1-yl}butan-1-ol]",> 1
17,"CC1(C)CCC(C)(C)c2cc(-c3cccc(C4CCNCC4)n3)ccc21 [6-(5,5,8,8-Tetramethyl-5,6,7,8-tetrahydronaphthalen-2-yl)-1′,2′,3′,4′,5′,6′-hexahydro-2,4′-bipyridinyl]",0.1 to 1
18,CC1(C)CCC(C)(C)c2cc(-c3cccc(N4CCN(CCCCCO)CC4)c3)ccc21,< 0.1
19,"CC1(C)CCC(C)(C)c2cc(-c3cccc(N4CCC(NCCCCCO)CC4)n3)ccc21 [5-[6′-(5,5,8,8-Tetramethyl-5,6,7,8-tetrahydronaphthalen-2-yl)-3,4,5,6-tetrahydro-2H-1,2′-bipyridinyl-4-ylamino]pentan-1-ol]",0.1 to 1
20,"CC1(C)CCC(C)(C)c2cc(-c3cccc(N4CCNCC4)c3)ccc21 [1-[3-(5,5,8,8-Tetramethyl-5,6,7,8-tetrahydronaphthalen-2-yl)phenyl]-piperazine]",0.1 to 1
21,CC1(C)CCC(C)(C)c2cc(-c3cccc(N4CCN(CCCCO)CC4)n3)ccc21,< 0.1
22,CC1(C)CCC(C)(C)c2cc(-c3ccnc(N4CCN(CCCCO)CC4)c3)ccc21,0.1 to 1
23,"CC1(C)CCc2cc(-c3cccc(N4CCNCC4)n3)ccc21 [1-[6-(1,1-Dimethylindan-5-yl)pyridin-2-yl]piperazine]",> 1
24,"CC1(C)CCC(C)(C)c2cc(-c3cncc(N4CCNCC4)n3)ccc21 [6′-(5,5,8,8-Tetramethyl-5,6,7,8-tetrahydronaphthalen-2-yl)-3,4,5,6-tetrahydro-2H-1,2′-bipyrazinyl]",> 1
25,"CC1(C)CCCc2ccc(-c3ncnc(N4CCNCC4)n3)cc21 [2-(8,8-Dimethyl-5,6,7,8-tetrahydronaphthalen-2-yl)-4-piperazin-1-yl-1,3,5-triazine]",> 1

row,SMILES,IC50 [µM]
1,"CC1(C)CC(C)(C)c2cc(-c3cccc(N4CCNCC4)n3)ccc21 [1-[6-(1,1,3,3-Tetramethylindan-5-yl)pyridin-2-yl]piperazine]",0.1 to 1
2,COCCOc1ccc(-c2ccc3c(c2)C(C)(C)CCC3(C)C)nc1N1CCN(CCCCCO)CC1,> 1
3,"CC1(C)CCC(C)(C)c2cc(-c3cccc(N4CCC(N5CCCC(O)C5)CC4)n3)ccc21 (stereo not shown) [6″-(5,5,8,8-Tetramethyl-5,6,7,8-tetrahydronaphthalen-2-yl)-3,4,5,6,3′,4′,5′,6′-octahydro-2H,2′H-[1,4′;1′,2″]terpyridin-3-ol]",0.1 to 1
4,"CC1(C)CC(C)(C)c2cc(-c3cccc(N4CCN(CCCCO)CC4)n3)ccc21 [4-{4-[6-(1,1,3,3-Tetramethylindan-5-yl)pyridin-2-yl]piperazin-1-yl}-butan-1-ol]",0.1 to 1
5,"CC1(C)CCCc2ccc(-c3cccc(N4CCNCC4)n3)cc21 [1-[6-(8,8-Dimethyl-5,6,7,8-tetrahydronaphthalen-2-yl)pyridin-2-yl]-piperazine]",> 1
6,C[C@H]1CN(c2cccc(-c3ccc4c(c3)C(C)(C)CCC4(C)C)c2)CCN1,0.1 to 1
7,CC1(C)CCC(C)(C)c2cc(-c3cc(N4CCNCC4)ccn3)ccc21,0.1 to 1
8,"CC1(C)CCCc2cc(-c3cccc(N4CCN(CCCCO)CC4)n3)ccc21 [4-{4-[6-(5,5-Dimethyl-5,6,7,8-tetrahydronaphthalen-2-yl)pyridin-2-yl]-piperazin-1-yl}butan-1-ol]",> 1
9,"CC1(C)CCC(C)(C)c2cc(-c3ncnc(N4CCNCC4)n3)ccc21 [2-Piperazin-1-yl-4-(5,5,8,8-tetramethyl-5,6,7,8-tetrahydronaphthalen-2-yl)-1,3,5-triazine]",< 0.1
10,CC1(C)CCC(C)(C)c2cc(-c3ncnc(N4CCN(CCCCCO)CC4)n3)ccc21,< 0.1
11,CC1(C)CCC(C)(C)c2cc(-c3ccnc(N4CCNCC4)c3)ccc21,0.1 to 1
12,"CC1(C)CCC(C)(C)c2cc(-c3cccc(N4CCC(NCCCCO)CC4)n3)ccc21 [4-[6′-(5,5,8,8-Tetramethyl-5,6,7,8-tetrahydronaphthalen-2-yl)-3,4,5,6-tetrahydro-2H-1,2′-bipyridinyl-4-ylamino]butan-1-ol]",< 0.1
13,"CC1(C)CCC(C)(C)c2cc(-c3ncnc(N4CCC(NCCCCO)CC4)n3)ccc21 [4-{1-[4-(5,5,8,8-Tetramethyl-5,6,7,8-tetrahydronaphthalen-2-yl)-1,3,5-triazin-2-yl]piperidin-4-ylamino}butan-1-ol]",< 0.1
14,"CC1(C)CCCc2ccc(-c3cccc(N4CCN(CCCCO)CC4)n3)cc21 [4-{4-[6-(8,8-Dimethyl-5,6,7,8-tetrahydronaphthalen-2-yl)pyridin-2-yl]-piperazin-1-yl}butan-1-ol]",> 1
15,CC1(C)CCC(C)(C)c2cc(-c3cccc(N4CCN(CCCCCOC(=O)CN)CC4)c3)ccc21,0.1 to 1
16,CC1(C)CCC(C)(C)c2cc(-c3cccc(N4CCN(CCCCO)CC4)c3)ccc21,0.1 to 1
17,"CC1(C)CCC(C)(C)c2cc(-c3cccc(N4CCN(CCCO)CC4)n3)ccc21 [3-{4-[6-(5,5,8,8-Tetramethyl-5,6,7,8-tetrahydronaphthalen-2-yl)-pyridin-2-yl]piperazin-1-yl}propan-1-ol]",0.1 to 1
18,"CC1(C)CCCc2cc(-c3cccc(N4CCN(CCCCCO)CC4)n3)ccc21 [5-{4-[6-(5,5-Dimethyl-5,6,7,8-tetrahydronaphthalen-2-yl)pyridin-2-yl]-piperazin-1-yl}pentan-1-ol]",0.1 to 1
19,CC1(C)CCC(C)(C)c2cc(-c3ncnc(N4CCC(N)CC4)n3)ccc21,< 0.1
20,CC1(C)CCC(C)(C)c2cc(-c3cccc(N4CCN(C[C@@H](N)CO)CC4)n3)ccc21,> 1
21,"CC1(C)CCC(C)(C)c2cc(-c3nccc(N4CCNCC4)n3)ccc21 [4-Piperazin-1-yl-2-(5,5,8,8-tetramethyl-5,6,7,8-tetrahydronaphthalen-2-yl)pyrimidine]",0.1 to 1
22,"CC1(C)CCc2cc(-c3cccc(N4CCN(CCCCCO)CC4)n3)ccc21 [5-{4-[6-(1,1-Dimethylindan-5-yl)pyridin-2-yl]piperazin-1-yl}pentan-1-ol]",> 1
23,"CC1(C)CCC(C)(C)c2cc(-c3ncnc(N4CCC(N5CCC(N)C5)CC4)n3)ccc21 (stereo not shown) [1-{1-[4-(5,5,8,8-Tetramethyl-5,6,7,8-tetrahydronaphthalen-2-yl)-1,3,5-triazin-2-yl]piperidin-4-yl}pyrrolidin-3-ylamine]",0.1 to 1
24,"CC1(C)CCCc2cc(-c3cccc(N4CCNCC4)n3)ccc21 [1-[6-(5,5-Dimethyl-5,6,7,8-tetrahydronaphthalen-2-yl)pyridin-2-yl]-piperazine]",> 1
